Laboratory results published in patent publication US20070087029A1, “Localized delivery to the lymphatic system” (priority 2005, published 2007).

Columns and labels:
[1] = Acute delivery: injection of tracking dye subcutaneously and above the IP wall, dye diffusion and gross visual examination of internal organs; type: in vivo, rat
Experimental: (§1) Animals. Male Lewis Inbred rats, six to eight weeks of age, were obtained from Charles River Laboratories and were acclimatized for five days before use. Animals were anesthetized with sodium pentobarbital before implants and dye injections.
(§2) Dyes. Isosulfan blue, india ink, and goat anti rabbit horse radish peroxidase (HRP) were used.
Acute delivery. 40 microliters (μl) of isosulfan blue was injected subcutaneously and above the IP wall. The location of the injection was varied to detect the site which would drain into the para-aortic lymph nodes. Dye diffusion was monitored at five minutes and thirty minutes. The animals were then sacrificed and a gross visual examination of the internal organs was performed to identify dye drainage into internal organs.

[2] = Chronic delivery: continuous infusion of dye(s) by Alzet miniosmotic pump for fourteen days, drainage to lymph nodes (photographs, OPD substrate development, histology); type: in vivo, rat; settings: 14 days, open ended catheter, tip became occluded
Excerpt: as §1, §2
Chronic delivery. Alzet® miniosmotic pumps with a delivery rate of 0.25 or 0.5 microliter/hour (μl/hr) were used to continuously infuse dye(s) for fourteen days. The animals were sacrificed and a gross visual examination of the internal organs was performed to identify dye drainage into internal organs. Lymph nodes were collected, photographed, and analyzed as described in Table 1, below.

CCN(CC)c1ccc(C(=C2C=CC(=[N+](CC)CC)C=C2)c2cc(S(=O)(=O)[O-])ccc2S(=O)(=O)[O-])cc1.[Na+] [isosulfan blue, Isosulfan blue]
dye diffusion after subcutaneous injection ([1]; 40 μl, subcutaneous injection, 30 minutes): Minimal diffusion
staining of internal organs after subcutaneous injection ([1]; injection site 1 cm above the hip joint, covered inguinal and popliteal beds): no internal organs being stained
dye diffusion after injection into the peritoneal wall ([1]; peritoneal wall, one centimeter above the hip joint): minimal diffusion
staining of internal organs after peritoneal wall injection ([1]; peritoneal wall, one centimeter above the hip joint, covered inguinal and popliteal beds): no internal organs being stained
dye in lymph nodes after chronic delivery [2]: not observed
